Where two headings read alike, the source gives them in different places.
Columns and labels:
Format in all cases: biochemical
firefly luciferase [1] = target: T1, firefly luciferase (Photinus pyralis, UniProt P08659); test: Quaternary ammonium/phosphonium detergent screen, firefly luciferase (Example 5); settings: Tergitol NP-9 present
Procedure: (§1) Each detergent was added at 0.2% to a reagent solution containing 50 mM Tricine pH 8.3, 3.5 mM MgSO4, 1 mM CDTA, 30 mM thiourea and 0.5% Tergitol NP-9. This solution or one not containing a detergent inhibitor was used to resuspend the Bright-Glo™ luciferin substrate (Promega).
(§2) The luciferase reactions were initiated by adding 100 μl of the firefly luciferase or Renilla luciferase enzyme solutions to 100 μl of reagent solution. The reactions were performed as described above. […] The detergent concentrations listed refer to the final concentration in the reaction.

firefly luciferase [2] = target: T1, firefly luciferase; test: as above; settings: final conc. 0.03% detergent, Tergitol NP-9 present; for remaining activity at 0.03 %: read-out: Retained Firefly Luciferase Luminescence (%)
Renilla luciferase [3] = target: T2, Renilla luciferase (Renilla reniformis, UniProt P27652); test: Quaternary ammonium/phosphonium detergent screen, Renilla luciferase (Example 5); settings: final conc. 0.03% detergent; for Retained Renilla Luciferase Luminescence (%) / remaining activity at 0.03 %: Tergitol NP-9 present; for remaining activity at 0.03 %: read-out: Retained Renilla Luciferase Luminescence (%)
T2 sequence (P27652 1-311): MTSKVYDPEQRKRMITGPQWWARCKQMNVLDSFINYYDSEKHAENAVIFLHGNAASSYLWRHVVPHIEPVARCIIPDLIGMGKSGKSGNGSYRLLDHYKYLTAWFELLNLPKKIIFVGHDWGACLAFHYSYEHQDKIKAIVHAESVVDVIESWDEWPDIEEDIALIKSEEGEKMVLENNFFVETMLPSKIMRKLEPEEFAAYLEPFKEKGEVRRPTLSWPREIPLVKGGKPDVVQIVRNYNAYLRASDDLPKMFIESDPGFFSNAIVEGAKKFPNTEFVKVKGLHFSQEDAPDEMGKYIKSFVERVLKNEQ

Renilla luciferase [4] = target: T2, Renilla luciferase; test: as above; settings: for Retained Renilla Luciferase Luminescence (%) / remaining activity at 0.1 %: Tergitol NP-9 present
Procedure: as §1, §2

Renilla luciferase [5] = target: T2, Renilla luciferase; test: Detergent titration with Tergitol NP-9, digitonin or no lysing agent, Renilla luciferase (Example 4); settings: for remaining activity at 0.0005 % / remaining activity at 0.005 % / remaining activity at 0.05 %: read-out: Relative Renilla Luc Intensity
Procedure: Renilla luciferase-mediated luminescence was measured from samples containing 9.6 mM phosphate buffer pH 6.8, 2.7 mM KCl, 137 mM NaCl (in PBS), 0.1% gelatin, 75 nM coelentrazine (Promega) and 10.2 ng/ml Renilla luciferase. Reactions contained either no lysing agent, 0.5% Tergitol NP-9 or 20 μg/ml digitonin. The detergents to be tested were titrated to 0.05%, 0.005% or 0.0005% in the reactions prior to the addition of the Renilla luciferase. Renilla luciferase-mediated luminescence was measured as described herein.

firefly luciferase [6] = target: T1, firefly luciferase; test: Detergent titration with Tergitol NP-9, digitonin or no lysing agent, firefly luciferase (Example 4); settings: read-out: Relative Firefly Luc Intensity; for remaining activity at 0.0005 %: 0.0005% detergent; for remaining activity at 0.005 %: 0.0050% detergent; for remaining activity at 0.05 %: 0.0500% detergent
Procedure: For measurement of firefly luciferase-mediated luminescence, a solution containing 110 mM HEPES pH 7.5, 8 mM MgSO4, 0.05% gelatin, 7.35 ng/ml firefly luciferase (QuantiLum® Luciferase; Promega) and the content of the Steady-Glo Luciferase Substrate (Promega) at the equivalent of 1×, As in the Renilla luciferase reactions, reactions contained either no lysing agent, 0.5% Tergitol NP-9 or 20 μg/ml digitonin. The same detergents were titrated as described above and firefly luciferase-mediated luminescence was measured.

Renilla luciferase [7] = target: T2, Renilla luciferase; test: biochemical; settings: 0.5% detergent in Renilla Luciferase Assay Reagent; read-out: Retained Renilla Luciferase Luminescence (%)
Procedure: The retained luminescence for each luciferase was calculated by dividing the luminescence in the presence of the detergent by the luminescence in the absence of the test detergent. The selectivity value for each of the test detergents was determined by dividing the retained firefly luciferase luminescence by the retained Renilla luciferase luminescence.
A set of detergents (Table 2; Sigma-Aldrich) was added at 0.5% (from a 5% or 10% stock solution) to either Luciferase Assay Reagent (Promega) or Renilla Luciferase Assay Reagent (Promega) and allowed to equilibrate at room temperature.
The firefly luciferase and Renilla luciferase enzymes were diluted as follows. Firefly luciferase was diluted to 14 ng/ml in Phosphate Buffered Saline (PBS) containing 0.1% of the protein carrier Prionex® (Pentapharm). Renilla luciferase was diluted to 10 ng/ml in 1× Renilla Luciferase Lysis Buffer (Promega) containing 0.1% Prionex®. The Renilla Luciferase Lysis Buffer […] detergent micelles when using the Renilla Luciferase Assay Reagent. In the absence of other detergents, this prevents sequestering of coelenterazine which inhibits Renilla luciferase-mediated luminescence.
The luciferase reactions were initiated by adding 40 μl of either the firefly or Renilla luciferase enzyme solution to 200 μl of the appropriate reagent solution (firefly luciferase enzyme solution+firefly luciferase reagent solution or Renilla luciferase enzyme solution+Renilla luciferase reagent solution, respectively). The reactions were performed in an opaque white, 96-well plate and luminescence was measured for 0.5 seconds per well using a Turner BioSystems Veritas™ Microplate luminometer. The retained firefly luciferase and Renilla luciferase luminescence, as well as the selectivity values for each detergent, were calculated (Table 2).

[8] = final conc. 0.10% detergent, read-out: Retained Firefly Luciferase Luminescence (%)
[9] = final conc. 0.10% detergent, read-out: Retained Renilla Luciferase Luminescence (%)

T1 sequence (P08659 whole entry): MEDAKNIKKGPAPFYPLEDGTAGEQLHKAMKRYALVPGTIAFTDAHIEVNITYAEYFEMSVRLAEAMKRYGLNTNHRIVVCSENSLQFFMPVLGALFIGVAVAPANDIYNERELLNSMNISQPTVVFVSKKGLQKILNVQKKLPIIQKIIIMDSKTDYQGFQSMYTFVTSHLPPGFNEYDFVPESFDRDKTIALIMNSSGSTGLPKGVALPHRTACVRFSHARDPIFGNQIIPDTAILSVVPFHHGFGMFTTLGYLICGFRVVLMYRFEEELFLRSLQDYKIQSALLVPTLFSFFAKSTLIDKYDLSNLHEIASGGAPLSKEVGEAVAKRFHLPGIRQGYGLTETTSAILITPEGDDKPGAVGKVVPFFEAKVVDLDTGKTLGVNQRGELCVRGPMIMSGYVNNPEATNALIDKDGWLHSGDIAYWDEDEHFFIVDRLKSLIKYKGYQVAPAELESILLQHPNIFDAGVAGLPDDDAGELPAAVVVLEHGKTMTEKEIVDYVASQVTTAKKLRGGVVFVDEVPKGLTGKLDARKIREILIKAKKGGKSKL

C[N+](C)(C)Cc1ccccc1.[I-] [Bezyltrimethylammonium iodide]
Retained Firefly Luciferase Luminescence (%) (firefly luciferase [1]; final conc. 0.10% detergent): 62%
Retained Firefly Luciferase Luminescence (%) (firefly luciferase [2]): 76%
Selectivity Value (Renilla luciferase [3]): 0.8
Retained Renilla Luciferase Luminescence (%) (Renilla luciferase [3]): 93%
Selectivity Value (Renilla luciferase [4]; final conc. 0.10% detergent): 0.6
Retained Renilla Luciferase Luminescence (%) (Renilla luciferase [4]; final conc. 0.10% detergent): 97%

C=CCCC[P+](c1ccccc1)(c1ccccc1)c1ccccc1.[Br-] [(4-Penten-1-yl)triphenylphosphonium bromide]
remaining activity at 0.1 % (firefly luciferase [1]; [8]): 102%
remaining activity at 0.03 % (firefly luciferase [2]): 98%
Selectivity Value (Renilla luciferase [3]): 1.7
remaining activity at 0.03 % (Renilla luciferase [3]): 57%
Selectivity Value (Renilla luciferase [4]; final conc. 0.10% detergent): 4.9
remaining activity at 0.1 % (Renilla luciferase [4]; [9]): 21%

C[N+](C)(Cc1ccccc1)c1ccccc1.[Cl-] [Benzyldimethylphenylammonium chloride]
Retained Firefly Luciferase Luminescence (%) (firefly luciferase [1]; final conc. 0.10% detergent): 55%
remaining activity at 0.03 % (firefly luciferase [2]): 82%
Selectivity Value (Renilla luciferase [3]): 2.2
Retained Renilla Luciferase Luminescence (%) (Renilla luciferase [3]): 38%
Selectivity Value (Renilla luciferase [4]; final conc. 0.10% detergent): 4.6
Retained Renilla Luciferase Luminescence (%) (Renilla luciferase [4]; final conc. 0.10% detergent): 12%

CCCCCCCCCCCCCCCC[N+](C)(C)C.[Cl-] [Cetyltrimethylammonium chloride]
Selective Inhibition (Ff Luc Inh/Ren Luc Inh) (Renilla luciferase [5]; 0.0005% detergent, Dig): 12
remaining activity at 0.0005 % (Renilla luciferase [5]; 0.0005% detergent, Dig): 14%
Selective Inhibition (Ff Luc Inh/Ren Luc Inh) (Renilla luciferase [5]; 0.0005% detergent, Terg): 1.0
remaining activity at 0.0005 % (Renilla luciferase [5]; 0.0005% detergent, Terg): 95%
Selective Inhibition (Ff Luc Inh/Ren Luc Inh) (Renilla luciferase [5]; 0.0005% detergent, Water): 13
remaining activity at 0.0005 % (Renilla luciferase [5]; 0.0005% detergent, Water): 13%
Selective Inhibition (Ff Luc Inh/Ren Luc Inh) (Renilla luciferase [5]; 0.0050% detergent, Dig): 2829
remaining activity at 0.005 % (Renilla luciferase [5]; 0.0050% detergent, Dig): 0.02%
Selective Inhibition (Ff Luc Inh/Ren Luc Inh) (Renilla luciferase [5]; 0.0050% detergent, Terg): 1.3
remaining activity at 0.005 % (Renilla luciferase [5]; 0.0050% detergent, Terg): 71%
Selective Inhibition (Ff Luc Inh/Ren Luc Inh) (Renilla luciferase [5]; 0.0050% detergent, Water): 3848
remaining activity at 0.005 % (Renilla luciferase [5]; 0.0050% detergent, Water): 0.02%
remaining activity at 0.05 % (Renilla luciferase [5]; 0.0500% (w:v) detergent, Terg (0.5% Tergitol NP-9)): 6%
Selective Inhibition (Ff Luc Inh/Ren Luc Inh) (Renilla luciferase [5]; 0.0500% detergent, Dig): 1395
remaining activity at 0.05 % (Renilla luciferase [5]; 0.0500% detergent, Dig (20 μg/ml digitonin)): 0.02%
Selective Inhibition (Ff Luc Inh/Ren Luc Inh) (Renilla luciferase [5]; 0.0500% detergent, Terg): 6
Selective Inhibition (Ff Luc Inh/Ren Luc Inh) (Renilla luciferase [5]; 0.0500% detergent, Water): 1611
remaining activity at 0.05 % (Renilla luciferase [5]; 0.0500% detergent, Water (no lysing agent)): 0.02%
remaining activity at 0.0005 % (firefly luciferase [6]; Dig): 164%
remaining activity at 0.0005 % (firefly luciferase [6]; Terg): 98%
remaining activity at 0.0005 % (firefly luciferase [6]; Water): 179%
remaining activity at 0.005 % (firefly luciferase [6]; Dig): 65%
remaining activity at 0.005 % (firefly luciferase [6]; Terg): 94%
remaining activity at 0.005 % (firefly luciferase [6]; Water): 70%
remaining activity at 0.05 % (firefly luciferase [6]; Dig (20 μg/ml digitonin)): 29%
remaining activity at 0.05 % (firefly luciferase [6]; Terg (0.5% Tergitol NP-9)): 38%
remaining activity at 0.05 % (firefly luciferase [6]; Water (no lysing agent)): 31%
remaining activity at 0.5 % (Renilla luciferase [7]): 5.23%

C[N+](C)(C)Cc1ccccc1.[Br-] [Benzyltrimethylammonium bromide]
remaining activity at 0.1 % (firefly luciferase [1]; read-out: Retained Firefly Luciferase Luminescence (%), final conc. 0.10% detergent): 100%
remaining activity at 0.03 % (firefly luciferase [2]): 99%
Selectivity Value (Renilla luciferase [3]): 1.0
remaining activity at 0.03 % (Renilla luciferase [3]): 95%
Selectivity Value (Renilla luciferase [4]; final conc. 0.10% detergent): 1.0
remaining activity at 0.1 % (Renilla luciferase [4]; read-out: Retained Renilla Luciferase Luminescence (%), final conc. 0.10% detergent): 87%

C[P+](C)(Cc1ccc([N+](=O)[O-])cc1)c1ccccc1.[Br-] [Dimethyl(4-nitrobenzyl)phenylphosphonium bromide]
remaining activity at 0.1 % (firefly luciferase [1]; [8]): 106%
remaining activity at 0.03 % (firefly luciferase [2]): 99%
Selectivity Value (Renilla luciferase [3]): 1.3
remaining activity at 0.03 % (Renilla luciferase [3]): 78%
Selectivity Value (Renilla luciferase [4]; final conc. 0.10% detergent): 2.2
remaining activity at 0.1 % (Renilla luciferase [4]; [9]): 49%
